In BindingDB's records for patent US11725000 (National Institute of Biological Sciences, Beijing, 2023):

Biological target: T1, Succinate dehydrogenase [ubiquinone] iron-sulfur subunit, mitochondrial (Homo sapiens, UniProt P21912)
T1 sequence (P21912 whole entry): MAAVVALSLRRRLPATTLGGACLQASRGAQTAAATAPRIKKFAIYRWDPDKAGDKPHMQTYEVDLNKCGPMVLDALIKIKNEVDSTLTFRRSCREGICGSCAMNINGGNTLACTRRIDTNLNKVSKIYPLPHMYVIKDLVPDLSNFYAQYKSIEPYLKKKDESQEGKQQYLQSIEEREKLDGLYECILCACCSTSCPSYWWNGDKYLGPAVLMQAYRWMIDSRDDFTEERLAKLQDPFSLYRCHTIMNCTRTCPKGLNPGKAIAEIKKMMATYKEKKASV
Test: Apoptosis Inhibition Assay
Text: In order to identify the target protein of tTC09 apoptosis inhibitors, we synthesized two sets of probes for target identification based on the SAR study. The first set of probes was designed for direct activity based protein profiling (ABPP) with biotin tag linked at different site. […] TC09 apoptosis inhibitors could stabilize the mitochondrial respiratory chain after Bim/tBid overexpression and help maintain the normal function of mitochondria. A second set of probes with a terminal alkyne group designed for click-reaction-assisted ABPP were also prepared.

EC50	Structure (SMILES)
0.817 µM	Cc1cc(-c2cccs2)nc(S(C)(=O)=O)n1 [US11725000, Compound 34]
0.069 µM	O=C1CCCN1CC[S+]([O-])c1nc(-c2cccs2)cc(C(F)(F)F)n1 (stereo not given) [US11725000, Compound 25]
2.2 µM	[O-][S+](CC1CC1)c1nc(-c2cccs2)cc(C(F)(F)F)n1 (stereo not given) [US11725000, Compound 10]
0.094 µM	O=S(=O)(CCc1ccccc1)c1nc(-c2cccs2)cc(C(F)(F)F)n1 [US11725000, Compound 26]
0.104 µM	CCOC(=O)CCS(=O)(=O)c1nc(-c2cccs2)cc(C(F)(F)F)n1 [US11725000, Compound 29]
1.14 µM	[O-][S+](Cc1cc(F)cc(F)c1)c1nc(-c2cccs2)cc(C(F)(F)F)n1 (stereo not given) [US11725000, Compound 19]
0.013 µM	[O-][S+](CCc1ccccc1)c1nc(-c2cccs2)cc(C(F)(F)F)n1 (stereo not given) [US11725000, Compound 27]
1 to 10 µM	CS(=O)(=O)c1nc(-c2cccs2)cc(C(F)(F)F)n1 [US11725000, Compound 1]
4.21 µM	CCCS(=O)(=O)c1nc(-c2cccs2)cc(C(F)(F)F)n1 [US11725000, Compound 4]
3.52 µM	N#Cc1cccc(C[S+]([O-])c2nc(-c3cccs3)cc(C(F)(F)F)n2)c1 (stereo not given) [US11725000, Compound 15]
3.49 µM	[O-][S+](Cc1ccccc1)c1nc(-c2cccs2)cc(C(F)(F)F)n1 (stereo not given) [US11725000, Compound 12]
6.35 µM	N#Cc1ccccc1CS(=O)(=O)c1nc(-c2cccs2)cc(C(F)(F)F)n1 [US11725000, Compound 13]
1.41 µM	O=S(=O)(Cc1ccc([N+]2([O-])CCOCC2)cc1)c1nc(-c2cccs2)cc(C(F)(F)F)n1 [US11725000, Compound 22]

Further lines, the molecule ahead of its results:

Structure (SMILES)	EC50
O=S(=O)(Cc1ccccc1)c1nc(-c2cccs2)cc(C(F)(F)F)n1 [US11725000, Compound 11]	6.64 µM
C[S+]([O-])c1nc(Cl)cc(-c2cccs2)n1 (stereo not given) [US11725000, Compound 33]	4.48 µM
CCOC(=O)CC[S+]([O-])c1nc(-c2cccs2)cc(C(F)(F)F)n1 (stereo not given) [US11725000, Compound 30]	4.88 µM
O=S(=O)(Cc1cc(F)cc(F)c1)c1nc(-c2cccs2)cc(C(F)(F)F)n1 [US11725000, Compound 18]	1.16 µM
CCC[S+]([O-])c1nc(-c2cccs2)cc(C(F)(F)F)n1 (stereo not given) [US11725000, Compound 5]	1.17 µM
O=C(O)CC[S+]([O-])c1nc(-c2cccs2)cc(C(F)(F)F)n1 (stereo not given) [US11725000, Compound 28]	0.499 µM
[O-][S+](Cc1ccc2ncccc2c1)c1nc(-c2cccs2)cc(C(F)(F)F)n1 (stereo not given) [US11725000, Compound 24]	0.11 µM
N#Cc1ccccc1C[S+]([O-])c1nc(-c2cccs2)cc(C(F)(F)F)n1 (stereo not given) [US11725000, Compound 14]	7.03 µM
[O-][S+](Cc1ccc(-c2ccccc2)cc1)c1nc(-c2cccs2)cc(C(F)(F)F)n1 (stereo not given) [US11725000, Compound 20]	0.257 µM
COC(=O)CCC[S+]([O-])c1nc(-c2cccs2)cc(C(F)(F)F)n1 (stereo not given) [US11725000, Compound 32]	0.064 µM
C#Cc1cc(-c2cccs2)nc(S(C)(=O)=O)n1 [US11725000, Compound 35]	0.995 µM
O=S(=O)(Cc1ccc2c(ccc[n+]2[O-])c1)c1nc(-c2cccs2)cc(C(F)(F)F)n1 [US11725000, Compound 23]	0.057 µM
